Consider five compounds from US7173004B2, “Macrocyclic isoquinoline peptide inhibitors of hepatitis C virus” (Bristol-Myers Squibb Company, priority 2003, dated 2007).

The conditions of data set [1]: from C=CCCCSC[C@@H](NC(=O)OC(C)(C)C)C(=O)N1C[C@H](Oc2nccc3cc(OC)ccc23)C[C@H]1C(=O)N[C@]1(C(=O)OCC)C[C@H]1C=C; rcm bond; Grubbs II (tricyclohexylphosphine[1,3-bis(2,4,6-trimethylphenyl)-4,5-dihydroimidazol-2-ylidene][benzylidene]ruthenium(IV) dichloride); 1,2-dichloroethane; 3.48 mM; 83.0 °C; 16.0 h.
In data set [2] the target is T1, HCV NS3/4A protease complex, BMS strain (genotype 1a) (UniProt P27958, C1454S/C1711G, species not given/STRAIN_BMS).
T1 construct: b1001: DNA encoding the recombinant HCV NS3/4A protease complex (amino acids 1027 to 1711) ... a three-lysine solubilizing tail was added at the 3′-end of the NS4A coding region; fused on or other part: Three-lysine solubilising tail at the C-terminus of NS4A; A His tag is implied by the pET21b vector and Ni-NTA purification
The data set can be described thus: Recombinant HCV NS3/4A protease complex FRET peptide assay, BMS strain. The note with it: NS3/4A BMS Strain; activity range classes. It is filed as biochemical. From the text: Recombinant HCV NS3/4A Protease Complex FRET Peptide Assay
The purpose of this in vitro assay was to measure the inhibition of HCV NS3 protease complexes, derived from the BMS strain, H77C strain or J416S strain, as described below, by compounds of the present invention. This assay provides an indication of how effective compounds of the present invention would be in inhibiting HCV proteolytic activity.
Serum from an HCV-infected patient was obtained from Dr. T. Wright, San Francisco Hospital. An engineered full-length cDNA (compliment deoxyribonucleic acid) template of the HCV genome (BMS strain) was constructed from DNA fragments obtained by reverse transcription-PCR (RT-PCR) of serum RNA (ribonucleic acid) and using primers selected on the basis of homology between other genotype 1a strains. From the determination of the entire genome sequence, a genotype 1a was assigned to the HCV isolate according to the classification of Simmonds et al. (See P Simmonds, K A Rose, S Graham, S W Chan, F McOmish, B C Dow, E A Follett, P L Yap and H Marsden, J. Clin. Microbiol., 31(6), 1493–1503 (1993)). […] The infectious clones, H77C (1a genotype) and J4L6S (1b genotype) were obtained from R. Purcell (NIH) and the sequences are published in Genbank (AAB67036, see Yanagi, M., Purcell, R. H., Emerson, S. U. and Bukh, J. Proc. Natl. Acad. Sci. U.S.A. 94(16), 8738–8743 (1997); AF054247, see Yanagi, M., St Claire, M., Shapiro, M., Emerson, S. U., Purcell, R. H. and Bukh, J, Virology 244 (1), 161–172. (1998)).
The H77C and J4L6S strains were used for production of recombinant NS3/4A protease complexes. DNA encoding the recombinant HCV NS3/4A protease complex (amino acids 1027 to 1711) for these strains were manipulated as described by P. Gallinari et al. (see Gallinari P, Paolini C, Brennan D, Nardi C, Steinkuhler C, De Francesco R. Biochemistry. 38(17):5620–32, (1999)). Briefly, a three-lysine solubilizing tail was added at the 3′-end of the NS4A coding region. The cysteine in the P1 position of the NS4A-NS4B cleavage site (amino acid 1711) was changed to a glycine to avoid the proteolytic cleavage of the lysine tag. Furthermore, a cysteine to serine mutation was introduced by PCR at amino acid position 1454 to prevent the autolytic cleavage in the NS3 helicase domain. The variant DNA fragment was cloned in the pET21b bacterial expression vector (Novagen) and the NS3/4A complex was expressed in Escherichia coli strain BL21 (DE3) (Invitrogen) following the protocol described by P. Gallinari et al. (see Gallinari P, Brennan D, Nardi C, Brunetti M, Tomei L, Steinkuhler C, De Francesco R., J. Virol. 72(8):6758–69 (1998)) with modifications. Briefly, NS3/4A expression was induced with 0.5 mM Isopropyl β-D-1-thiogalactopyranoside (IPTG) for 22 hr at 20° C. A typical fermentation (10 L) yielded approximately 80 g of wet cell paste. The cells were resuspended in lysis buffer (10 mL/g) consisting of 25 mM N-(2-Hydroxyethyl)piperazine-N′-(2-Ethane Sulfonic acid) (HEPES), pH7.5, 20% glycerol, 500 mM Sodium Chloride (NaCl), 0.5% Triton-X100, 1 microgram/milliliter (“μg/mL”) lysozyme, 5 mM Magnesium Chloride (MgCl2), 1 ug/ml DnaseI, 5 mM β-Mercaptoethanol (βME), Protease inhibitor—Ethylenediamine Tetraacetic acid (EDTA) free (Roche), homogenized and incubated for 20 mins at 4° C. The homogenate was sonicated and clarified by ultra-centrifugation at 235000 g for 1 hr at 4° C. Imidazole was added to the supernatant to a final concentration of 15 mM and the pH adjusted to 8.0. The crude protein extract was loaded on a Nickel-Nitrilotriacetic acid (Ni-NTA) column pre-equilibrated with buffer B (25 mM HEPES, pH8.0, 20% glycerol, 500 mM NaCl, 0.5% Triton-X100, 15 mM imidazole, 5 mM βME). The sample was loaded at a flow rate of 1 mL/min. The column was washed with 15 column volumes of buffer C (same as buffer B except with 0.2% Triton-X100). The protein was eluted with 5 column volumes of buffer D (same as buffer C except with 200 mM Imidazole). […]

The subject of data set [3] is HCV replicon. Put plainly: Two-drug combination matrix studies in HCV replicon system, Universal Response Surface Approach (URSA). Type of data set: cell-based. The note with it: Hepatitis C virus, matrix study with NS5A inhibitor, URSA estimate (Table 10). As for the experimental part:
In addition to the combination index approach, above, the Universal Response Surface Approach (URSA) was also used to assess the antiviral effects of combinations of NS5A or NS5B inhibitors with the NS3 protease inhibitor. The experiments were conducted in a matrixed format with 8 concentrations of NS3 protease inhibitor crossed against 10 concentrations of NS5A or NS5B inhibitor on each of three plates. 200× stock solutions of each inhibitor concentration were prepared by 3-fold dilution in DMSO. Effects on replication were assessed in the HCV replicon system as described above. The data was analyzed using the URSA as described in Greco, Park and Rustum (Greco, Park, Sook, and Rustum (1990) Application of a New Approach for the Quantitation of Drug Synergism to the Combination of cis-Diamminedichloroplatinum and 1-β-D-Arabinofuranosylcytosine, Cancer Research, 50, 5318–5327). The interaction of the two drugs was assessed by using non-linear regression with a bisection algorithm. Seven parameters were estimated. These include the minimal response or response in the absence of drug, the maximal response or response in the presence of infinite drug, EC50's for the two drugs, slope parameters for the two drugs, and the drug interaction parameter α which provides the assessment of synergism, antagonism or additivity. Additivity is implied when α is equal to zero, synergy if the interaction parameter is larger than zero, and antagonism when the interaction parameter is less than zero. The confidence interval for the interaction parameter is also presented. This interval is used to test for departure from additivity by comparing the bounds to zero—a lower bound of the interval greater than zero indicates synergy, an upper bound of less than zero indicates antagonism, and a value of zero contained in the interval indicates additivity.

Data set [4] deals with HCV replicon. Put plainly: Three-drug combination studies in HCV replicon system, combination index. Conditions: mono-therapy in the three-drug combination experiment, HCV replicon, read-out: NS5A inhibitor EC50. Type of data set: cell-based. As for the experimental part:
[…] an NS5B replicase inhibitor (compound 2006; WO 03/010141), were tested in 2-drug combinations with the macrocyclic HCV NS3 protease inhibitor compound 28. In addition, compound 28 was also tested in 3-drug combinations with the NS5A and NS5B inhibitors.
For the experiments shown in Tables 8 and 9, inhibitors were tested at eleven concentrations each. 200× stock solutions of each inhibitor concentration were prepared by 2- or 3-fold dilution in DMSO prior to addition to cells/media. The drugs were tested as monotherapies and in combination with the NS3 protease inhibitor at various concentration ratios. Cells were exposed to compounds for 4 days and the amount of HCV inhibition was then determined using the FRET assay. The potential cytotoxicities of these combined agents were also analyzed in parallel by Alamar Blue staining. […] The degree of antagonism, additivity, or synergy was determined over a range of drug concentrations, and combination response curves were fit to assess the antiviral effects of the drug treatment combinations. The concentration ratios were analyzed using the method of Chou (Chou, Ting-Chao, and Rideout (Editors), (1991) Synergism and Antagonism in Chemotherapy, P. 61–101, Academic Press, New York). Tables 8 and 9 report the estimated EC50 values for the compounds tested, as well as the combination indices (CI). All estimates were computed using SAS Proc NLIN, and a two-parameter logistic. All combination indices were tested for departure from additivity using isobologram methods. Asymptotic confidence intervals were also calculated for each of the combination indices. These intervals are used to test for departure from additivity by comparing the bounds to one—a lower bound of the interval greater than 1 indicates antagonism, an upper bound of less than 1 indicates synergism, and a value of 1 contained in the interval indicates additivity.
Compound 28 was also tested in 3-drug combination experiments with the NS5A inhibitor and the NS5B inhibitor (Table 12). The starting concentrations for the mono-therapies consisted of a 0.667 μM solution of the NS5A inhibitor, a 0.3 μM solution of compound 28, and a 2.5 μM solution of the NS5B inhibitor. The starting concentration for the triple combination contained a mixture of ⅓ of each of the above concentrations. Dose response curves for all three mono-therapies and the triple combination therapy were obtained using 3-fold dilutions, and data analysis was carried out as described above for combination index experiments.

In data set [5] the test system is HCV. The note with it: cited from earlier work.

Broadly, the IC50 is the concentration that gives 50% inhibition. For orientation: EC50 means the concentration needed to bring the measured effect to its halfway point.

Take `CCOC(=O)[C@@]12C[C@H]1C=CCCCSC[C@@H](NC(=O)OC(C)(C)C)C(=O)N1C[C@H](Oc3nccc4cc(OC)ccc34)C[C@H]1C(=O)N2`: the ring closure, yield of all isomers in data set [1] came out at 73%.

Turning to `COc1ccc2c(O[C@@H]3C[C@H]4C(=O)N[C@]5(C(=O)O)C[C@H]5/C=C\COCC[C@H](NC(=O)OC(C)(C)C)C(=O)N4C3)nccc2c1` [Compound 140], in data set [2], the IC50 lay within 5000 to 50000 nM. For `O=C(Nc1ccc(C2S/C(=N\c3ccc(N4CCOCC4)cc3)N(Cc3cccnc3)C2=O)cc1)[C@@H]1CCCN1C(=O)CCc1ccccc1` (stereo partly shown) [NS5A inhibitor, reference compound], the EC50 was 8 nM in data set [3], 5 nM in data set [4] (Hepatitis C virus) and 9 nM in data set [4]. With “alpha-interferon and ribavirin [reference compound]”, the sustained efficacy in data set [5] (HCV patients) is recorded as 40 % of patients. pegylated alpha-interferon: the “efficacy as monotherapy compared with unmodified alpha-interferon” value in data set [5] (clinical results, monotherapy) is given as “superior to unmodified alpha-interferon”.
